# In article PMC4604124, “In Vitro Characterization of the Pharmacological Properties of the Anti-Cancer Chelator, Bp4eT, and Its Phase I Metabolites” (PLoS ONE, 2015):
# Where “and” joins values, the source holds several entries; their conditions need not be identical. Equal entries are not always repeated. Where two headings read alike, the source gives them in different places.
# Tests used:
# [1] = test system: MCF-7 cells prelabeled with 59Fe2-transferrin; assay: Mobilization (efflux) of cellular 59Fe; assay type: cell-based, human; set-up: Efflux 59Fe / Efflux 59Fe, Ave: unit not given here
# From the text: Human transferrin (Sigma) was labeled with ^56Fe or ^59Fe (PerkinElmer, Massachusetts, USA) to produce ^56Fe2-transferrin or ^59Fe2-transferrin (^59Fe2-Tf), respectively, with a final specific activity of 500 pCi/pmol Fe, as previously described. Unbound ^59Fe was removed by exhaustive vacuum dialysis against a large excess of 0.15 M NaCl buffered to pH 7.4 with 1.4% NaHCO3 by standard methods.
# To examine the ability of studied compounds to mobilize cellular ^59Fe from MCF-7 cells, iron efflux experiments were performed using established techniques. In brief, after pre-labeling confluent MCF-7 cells on 6-well plates with 0.75 μM ^59Fe2-Tf for 3 h/37°C, the cells were washed four times with ice-cold PBS and then subsequently incubated with 25 μM of Bp4eT or its metabolites for 3 h/37°C. The overlying medium containing released ^59Fe was then decanted from the cells. Radioactivity was measured in both the cells and the supernatant using a γ-scintillation counter (Wallac Wizard 3, Turku, Finland).
# [2] = test system: labile iron pool of MCF-7 cells; assay: Calcein-AM assay, access to the labile iron pool; assay type: cell-based, human; set-up: Calcein fluorescence: unit not given here; settings: 10 μM; for Calcein fluorescence: mean (průměr)
# Method: These experiments were performed according to Glickstein et al. with slight modifications. The MCF-7 cells were seeded in 96-well plates (10,000 cells/well) and allowed to adhere for 24 h/37°C. Cells were loaded with iron using the cellular iron donor, ferric ammonium citrate (530 μg/mL), 24 h prior to the experiment, and then washed. To prevent potential interference, especially with regard to various trace elements, the medium was replaced with ADS buffer (prepared using Millipore water supplemented with 116 mM NaCl, 5.3 mM KCl, 1 mM CaCl2, 1.2 mM MgSO4, 1.13 mM NaH2PO4, 5 mM D-glucose, and 20 mM HEPES, pH 7.4). Cells were then loaded with 2 μM of the cell-permeable calcein green acetoxymethyl ester (calcein-AM; Molecular Probes, Oregon, USA) for 30 min/37°C and washed. Cellular esterases cleave the acetoxymethyl groups to form the cell membrane-impermeable compound, calcein green. The fluorescence of calcein green is quenched upon binding iron. The intracellular fluorescence (λex = 488 nm; λem = 530 nm) of calcein green was then followed as a function of time (10 min after the addition of 10 μM Bp4eT or its metabolites) at 37°C using the Tecan Infinite 200M plate reader. The iron chelation efficacy of the metabolites in cells was expressed as a percentage of the efficacy of the parent chelator, Bp4eT (100%).
# [3] = MTT cytotoxicity assay, 3T3 cells; assay type: cell-based, mouse; settings: mouse, 3T3 mouse embryo fibroblasts, 3T3, 10 000 b/j; for viability at 72 h, 1 μM: koncentrace 1 μM; for viability at 72 h, 3 μM: koncentrace 3 μM; for viability at 72 h, 10 μM: koncentrace 10 μM; for viability at 72 h, 30 μM: koncentrace 30 μM; for viability at 72 h, 100 μM: koncentrace 100 μM; for viability at 72 h, 300 μM: koncentrace 300 μM; for viability at 72 h, 1000 μM: koncentrace 1000 μM
# Method: For cytotoxicity experiments, cancer cells were seeded at a density of 5,000 (MCF-7), 10,000 (HL-60) or 2,000 cells/well (HCT116 and A549) in 96-well plates (TPP) for 24 h/37°C prior to the addition of examined agents. The non-cancerous cells, 3T3 and H9c2 cells, were cultured for 24 h/37°C in 96-well plates at a density of 10,000 cells/well, the medium was then changed to serum- and pyruvate-free DMEM (Sigma-Aldrich) and incubated with the cells for another 24 h/37°C. The cytotoxic effects of Bp4eT and its metabolites were studied at different concentrations after a 72 h/37°C incubation. In order to aid the dissolution of the lipophilic ligands, 0.1% dimethyl sulfoxide (v/v) (DMSO; Sigma-Aldrich) was present in the culture medium of all groups. At this concentration, DMSO had no effect on cellular proliferation or viability.
# The viability of cells were determined using an MTT assay (Sigma-Aldrich) according to previously established methods. The optical density of soluble MTT was measured at λ = 570 nm, subtracting the λ = 690 nm background using a Tecan Infinite 200M plate reader (Tecan Group, Männedorf, Switzerland). The viability or proliferation of experimental groups was expressed as a percentage of the untreated controls (100%).
# SigmaStat for Windows 3.5 (Systat Software, San Jose, CA, USA) statistical software package was utilized to analyze results. The data are expressed as the mean ± SD of a given number of experiments. Statistical significance was determined using a one-way ANOVA with a Bonferroni post-hoc test or Student’s t-test. The results were considered to be statistically significant when p < 0.05. The IC50 values were calculated using CalcuSyn 2.0 software (Biosoft, Cambridge, UK). Cell cycle analysis was evaluated using MultiCycle AV Software (Phoenix Flow Systems, San Diego, CA, USA).
# caspase 9 = assay: Caspase activity, luminescent kit, caspase 9; assay type: cell-based, human; settings: for kaspáza 9, raw signal / kaspáza 9, signal / viabilita: individual experiments by date; for kaspáza 9, raw signal, průměry / kaspáza 9, % kontroly / kaspáza 9, signal / viabilita, průměry: mean; for kaspáza 9, % kontroly / kaspáza 9, signal / viabilita / kaspáza 9, signal / viabilita, průměry: normalised to viability
# Method: To assess the effect of the compounds on caspase activity, MCF-7 cells were incubated with 100 nM Bp4eT or its metabolites for 3, 24 or 72 h/37°C in 96-well plates, as described above. The cells were then lysed by adding 100 μL of cold lysis buffer (100 mM HEPES, 10 mM CHAPS, 10 mM D-L-dithiothreitol, pH 7.4) to 100 μL of medium in each well. Lysates were immediately frozen at -80°C. Thawed lysates were used to assess caspase activity using luminescent kits for caspases 3/7, 8 and 9 (Promega, Madison, WI, USA). The luminescence was measured using the Tecan Infinite 200M plate reader. Caspase activity in the experimental groups was corrected according to the cellular viability of each group and expressed as a percentage of activity of the untreated control (100%).
# [4] = individual experiments, read-out: MTT viability (0 = 100)
# [5] = mean, read-out: MTT viability (0 = 100), průměr
compound,measurement,setting,value
"CCN=CNN=C(c1ccccc1)c1ccccn1 [Bp4eA, N ^3-ethyl-N ^1-[phenyl(pyridin-2-yl)methylene]formamidrazone]","Efflux 59Fe, Ave",[1]; average of all replicates,3.53
same,Efflux 59Fe,[1]; single replicate (three per date),4.0325 and 2.6377 and 3.5208 and 3.7889 and 3.2967 and 3.9821 and 3.9608 and 3.1218 and 3.4276
same,Calcein fluorescence,[2]; 30 sec,16.628
same,Calcein fluorescence,[2]; 60 sec,5.072
same,Calcein fluorescence,[2]; 90 sec,8.535
same,Calcein fluorescence,[2]; 120 sec,16.564
same,Calcein fluorescence,[2]; 300 sec,13.356
same,Calcein fluorescence,[2]; 600 sec,12.951
same,Chelation efficacy: fluorescence of free calcein at t = 600 s as percentage of Bp4eT,"[2]; MCF-7, mean of 6 experiments",5.9% and 5.872%
same,"viability at 72 h, 1 μM",[3]; [4],110%
same,"viability at 72 h, 1 μM",[3]; [5],100%
same,"viability at 72 h, 3 μM",[3]; [4],106%
same,"viability at 72 h, 3 μM",[3]; [5],98.2%
same,"viability at 72 h, 10 μM",[3]; [4],103%
same,"viability at 72 h, 10 μM",[3]; [5],94.7%
same,"viability at 72 h, 30 μM",[3]; [4],101%
same,"viability at 72 h, 30 μM",[3]; [5],92.8%
same,"viability at 72 h, 100 μM",[3]; [4],88.8%
same,"viability at 72 h, 100 μM",[3]; [5],87.3%
same,"viability at 72 h, 300 μM",[3]; [4],80.5%
same,"viability at 72 h, 300 μM",[3]; [5],78.1%
same,"viability at 72 h, 1000 μM",[3]; [4],37.5%
same,"viability at 72 h, 1000 μM",[3]; [5],47.2%
same,"kaspáza 9, raw signal",caspase 9; 3 hodiny,5948 and 2664.5 and 3083.5 and 2163.5
same,"kaspáza 9, raw signal, průměry",caspase 9; 3 hodiny,3464.88
same,"kaspáza 9, % kontroly",caspase 9; 3 hodiny,101.76 % kontroly
same,"kaspáza 9, signal / viabilita",caspase 9; 3 hodiny,61.4437 and 27.5247 and 31.853 and 22.3493
same,"kaspáza 9, signal / viabilita, průměry",caspase 9; 3 hodiny,35.7927
same,"kaspáza 9, raw signal",caspase 9; 24 hodin,4444 and 2960 and 4885.5 and 3130
same,"kaspáza 9, raw signal, průměry",caspase 9; 24 hodin,3854.88
same,"kaspáza 9, % kontroly",caspase 9; 24 hodin,99.64 % kontroly
same,"kaspáza 9, signal / viabilita",caspase 9; 24 hodin,46.4885 and 30.9645 and 51.1071 and 32.7428
same,"kaspáza 9, signal / viabilita, průměry",caspase 9; 24 hodin,40.3257
same,"kaspáza 9, raw signal",caspase 9; 72 hodin,22564 and 18032 and 23775.5 and 21453
same,"kaspáza 9, raw signal, průměry",caspase 9; 72 hodin,21456.1
same,"kaspáza 9, % kontroly",caspase 9; 72 hodin,106.51 % kontroly
same,"kaspáza 9, signal / viabilita",caspase 9; 72 hodin,242.519 and 193.809 and 255.541 and 230.578
same,"kaspáza 9, signal / viabilita, průměry",caspase 9; 72 hodin,230.612
